Laboratory results reported in the supplement of paper PMC10307832.

What was measured:
Test in all cases: relative viability (nuclei count vs DMSO), 5 days (fraction); higher = more cells survive
Metformin + Tozasertib = compound: CN(C)C(=N)NC(=N)N [Metformin] + Cc1cc(Nc2cc(N3CCN(C)CC3)nc(Sc3ccc(NC(=O)C4CC4)cc3)n2)n[nH]1 [Tozasertib] (partner 0.1 µM)
In short: (§1)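 A single step with final 0.05% Triton X-100, 1% formaldehyde and 1 ug/ml Hoechst fixed the cells and stained nuclei 5 days after treatment. Lung cancer cell lines in 1536-well plates had been treated by pin tool the day after seeding with one drug alone or a fixed anchor-drug dose plus five library-drug doses (not always all listed) in √10 steps, and nuclei were counted on 4× images. Relative viability is the ratio of nuclei in treated wells to nuclei in vehicle wells, taken as the median of duplicate plates.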

Metformin + Phenformin = compound: CN(C)C(=N)NC(=N)N [Metformin] + N=C(N)NC(=N)NCCc1ccccc1 [Phenformin] (partner 250 µM)
In short: as §1

Apatinib + Lapatinib = compound: N#CC1(c2ccc(NC(=O)c3cccnc3NCc3ccncc3)cc2)CCCC1 [Apatinib] + CS(=O)(=O)CCNCc1ccc(-c2ccc3ncnc(Nc4ccc(OCc5cccc(F)c5)c(Cl)c4)c3c2)o1 [Lapatinib] (partner 2 µM)
In short: as §1

Apatinib + Bortezomib = compound: N#CC1(c2ccc(NC(=O)c3cccnc3NCc3ccncc3)cc2)CCCC1 [Apatinib] + CC(C)C[C@H](NC(=O)[C@H](Cc1ccccc1)NC(=O)c1cnccn1)B(O)O [Bortezomib] (partner 0.002 µM)
In short: as §1

Cell Line | relative viability (Metformin + Tozasertib; first compound 10 µM) | relative viability (Metformin + Tozasertib; first compound 31.62 µM) | relative viability (Metformin + Tozasertib; first compound 100 µM) | relative viability (Metformin + Tozasertib; first compound 316.23 µM) | relative viability (Metformin + Tozasertib; first compound 1000 µM) | relative viability (Metformin + Phenformin; first compound 10 µM) | relative viability (Metformin + Phenformin; first compound 31.62 µM) | relative viability (Metformin + Phenformin; first compound 100 µM) | relative viability (Metformin + Phenformin; first compound 316.23 µM) | relative viability (Metformin + Phenformin; first compound 1000 µM) | relative viability (Apatinib + Lapatinib; first compound 0.08 µM) | relative viability (Apatinib + Lapatinib; first compound 0.253 µM) | relative viability (Apatinib + Lapatinib; first compound 0.8 µM) | relative viability (Apatinib + Lapatinib; first compound 2.53 µM) | relative viability (Apatinib + Lapatinib; first compound 8 µM) | relative viability (Apatinib + Bortezomib; first compound 0.08 µM) | relative viability (Apatinib + Bortezomib; first compound 0.253 µM) | relative viability (Apatinib + Bortezomib; first compound 0.8 µM) | relative viability (Apatinib + Bortezomib; first compound 2.53 µM) | relative viability (Apatinib + Bortezomib; first compound 8 µM)
NCI-H358 | 0.0917 | 0.104 | 0.101 | 0.0897 | 0.0865 | 0.351 | 0.237 | 0.217 | 0.309 | 0.328 | 0.47 | 0.397 | 0.474 | 0.439 | 0.403 | – | – | – | – | –
NCI-H1793 | 0.459 | – | 0.5 | 0.469 | 0.588 | 0.431 | – | 0.403 | 0.366 | 0.562 | 0.553 | 0.616 | 0.736 | 0.544 | 0.604 | – | – | – | – | –
SW 900 | 0.476 | 0.482 | 0.658 | 0.461 | 0.657 | 0.805 | 0.736 | 0.665 | 0.539 | 0.862 | – | – | – | – | – | – | – | – | – | –
LCLC-103H | 0.557 | 0.627 | 0.568 | 0.556 | 0.592 | 0.337 | 0.374 | 0.407 | 0.324 | 0.398 | – | – | – | – | – | 1.16 | 1.03 | 0.998 | 0.992 | 1.09
IA-LM | – | – | – | – | – | – | – | – | – | – | 0.814 | 0.677 | 0.772 | 0.6 | 0.305 | 0.952 | 0.976 | 0.839 | 0.536 | 0.183
NCI-H1395 | 0.727 | 0.752 | 0.867 | 0.83 | 0.738 | 0.448 | 0.429 | 0.525 | 0.423 | 0.467 | 0.848 | 1.31 | 1.17 | 0.855 | 0.901 | – | – | – | – | –
NCI-H1792 | – | – | – | – | – | 0.412 | 0.442 | 0.396 | 0.462 | 0.383 | 0.873 | 0.877 | 0.855 | 0.798 | 0.844 | 0.917 | 1.05 | 0.957 | 0.906 | 0.968
NCI-H2342 | 0.507 | 0.447 | 0.618 | 0.35 | 0.276 | 0.59 | 0.47 | 0.494 | 0.51 | 0.572 | – | – | – | – | – | – | – | – | – | –
NCI-H1648 | 0.474 | 0.656 | 0.859 | 0.706 | 0.742 | – | – | – | – | – | – | – | – | – | – | – | – | – | – | –
EBC-1 | – | – | – | – | – | – | – | – | – | – | 0.194 | 0.197 | 0.235 | 0.231 | 0.237 | 0.577 | 0.782 | 0.605 | 0.395 | 0.359
LK-2 | 0.163 | 0.189 | 0.183 | 0.174 | 0.174 | 0.758 | 0.636 | 0.374 | 0.381 | 0.667 | 0.7 | 0.827 | 0.878 | 0.782 | 0.73 | – | – | – | – | –
